Test results published in publication PMC10761730, “Serglycin secreted by late-stage nucleus pulposus cells is a biomarker of intervertebral disc degeneration” (Nature Communications, 2024).

Molecular target: T1, Serglycin (SRGN) (Homo sapiens, UniProt P10124)
T1 construct: endogenous protein in primary human nucleus pulposus cells; CETSA with Western blot read-out
T1 sequence (P10124 28-158): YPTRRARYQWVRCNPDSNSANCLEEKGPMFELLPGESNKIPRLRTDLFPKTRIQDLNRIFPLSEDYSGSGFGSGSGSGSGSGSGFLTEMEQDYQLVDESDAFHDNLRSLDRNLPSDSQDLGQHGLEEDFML
Assay: cellular thermal shift assay (CETSA), Western blot
Type: cell-based
Conditions: intact NPCs pretreated with DAP for 12 h, heated 3 min, freeze-thaw lysis; melt curve only in figure

Compound: O=c1ccc2ccc(O)c(O)c2o1 [Daphnetin]
- cellular thermal shift assay (CETSA), Western blot: CETSA) of DAP and SRGN proteins also suggested that DAP could bind to SRGN
